This note sets out measurements from ChEMBL document CHEMBL1134245, “Two novel and potent 3-[(o-methoxyphenyl)piperazinylethyl]-5-phenylthien” (Bioorg Med Chem Lett, 2001).

One may read the Ki as a dissociation constant, usually derived from enzyme kinetics or from competition with a known ligand. Read a high Ki as weaker binding.

The target in experiment [1] is T1, Alpha-1D adrenergic receptor (Rattus norvegicus, UniProt P23944).
T1 sequence (P23944 whole entry): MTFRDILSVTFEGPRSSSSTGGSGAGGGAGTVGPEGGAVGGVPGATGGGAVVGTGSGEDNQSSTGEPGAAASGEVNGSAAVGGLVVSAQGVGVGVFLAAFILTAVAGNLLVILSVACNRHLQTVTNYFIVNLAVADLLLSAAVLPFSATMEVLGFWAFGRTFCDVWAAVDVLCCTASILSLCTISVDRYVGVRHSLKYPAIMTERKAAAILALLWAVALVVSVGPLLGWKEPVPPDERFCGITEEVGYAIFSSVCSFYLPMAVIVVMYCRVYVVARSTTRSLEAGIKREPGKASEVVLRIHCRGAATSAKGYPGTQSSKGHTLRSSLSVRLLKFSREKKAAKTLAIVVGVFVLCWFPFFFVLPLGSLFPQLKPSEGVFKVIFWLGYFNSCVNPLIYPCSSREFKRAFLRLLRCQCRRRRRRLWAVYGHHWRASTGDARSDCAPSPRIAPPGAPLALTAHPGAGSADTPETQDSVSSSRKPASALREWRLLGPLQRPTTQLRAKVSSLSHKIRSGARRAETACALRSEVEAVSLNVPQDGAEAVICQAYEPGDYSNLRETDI
In words: In vitro functional activity at Alpha-1D adrenergic receptor in rat aorta. In kind it is tissue-based. To be noted: read-out: pA2 (converted).

The target of experiment [2] is T2, Alpha-1B adrenergic receptor (Homo sapiens, UniProt P35368).
T2 sequence (P35368 whole entry): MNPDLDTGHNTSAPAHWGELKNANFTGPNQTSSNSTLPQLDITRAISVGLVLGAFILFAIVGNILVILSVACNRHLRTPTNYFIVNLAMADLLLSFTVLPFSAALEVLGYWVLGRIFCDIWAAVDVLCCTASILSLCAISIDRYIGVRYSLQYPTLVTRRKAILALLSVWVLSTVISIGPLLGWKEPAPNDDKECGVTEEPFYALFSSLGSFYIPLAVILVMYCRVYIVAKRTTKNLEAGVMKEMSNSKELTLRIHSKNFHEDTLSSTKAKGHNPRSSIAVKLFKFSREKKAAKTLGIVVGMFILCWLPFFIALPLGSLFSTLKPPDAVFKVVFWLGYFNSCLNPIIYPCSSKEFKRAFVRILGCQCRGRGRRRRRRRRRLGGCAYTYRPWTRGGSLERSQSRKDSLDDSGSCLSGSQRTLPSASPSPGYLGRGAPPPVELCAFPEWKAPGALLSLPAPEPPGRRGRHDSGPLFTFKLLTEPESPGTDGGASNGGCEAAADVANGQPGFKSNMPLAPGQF
In words: Binding affinity towards human Alpha-1B adrenergic receptor.

For experiment [3], the target named is T1, Alpha-1D adrenergic receptor. The experiment can be described thus: In vitro functional activity at Alpha-1D receptor in rat aorta. To be noted: read-out: pA2 (converted). In kind it is tissue-based.

On to `COc1ccccc1N1CCN(CCn2c(=O)[nH]c3scc(-c4ccccc4)c3c2=O)CC1` [A-119637], for which the Kb in experiment [1] is 0.0251 nM. Further, in experiment [2], the Ki turned out to be 4.66 nM.

Consider `COc1ccccc1N1CCN(CCn2c(=O)[nH]c3scc(-c4cccc(C)c4)c3c2=O)CC1` [A-123189], for which the Kb in experiment [3] is 0.02 nM. The molecule further came in with a Ki in experiment [2] of 9.09 nM.
